# Assay results published in patent publication US10858357B2, “Water-soluble myosin 2 inhibitors for the treatment of neurological, neuropathic or psychiatric diseases” (PARIS SCIENCES ET LETTRES-QUARTIER LATIN, priority 2016, dated 2020).
# Where two headings read alike, the source gives them in different places.
# How the values were obtained:
# [1] = system: zebrafish skeletal muscle; assay: Zebrafish fast escape response (C-start), maximal angular velocity; type: in vivo, zebrafish (Danio rerio); conditions: 6 dpf zebrafish
# Procedure: For the fast escape response experiments, 6 dpf larvae were placed in 50 μl drops on a plastic plate. They were treated with 0, 2, 5, 10 or 20 μM of neurelaxin-A. To evoke C-start response, acoustic stimuli were applied according to the following protocol: 10 taps were carried out with 1 minute intervals every hour for 4 hours. The force of tapping was standardized. Images were recorded with Ximea Camera (MQ003MG-CM) at 500 fps for 2 s. Data were analyzed by Flote software version 2.1 and maximal angular velocity parameters of C-start reflex were quantified. For the experiments investigating the effect of the inhibitor on the heart muscle of zebrafish, 6 dpf larvae were embedded in 1% agarose and kept in E3 in the presence of 20 μM neurelaxin-A. Videos were taken by a camera at 15.1 fps before and after inhibitor treatment every hour for 3 hours.
# Transgenic Tg(−8.0cldnb:lynEGFP)^zf106 (cldnb:gfp) (Haas, P. & Gilmour, D., Developmental Cell 10, 2006, pp 673-680) zebrafish (Danio rerio) were maintained in the animal facility of Eötvös Loránd University. […]
# The relative rate of in vivo skeletal muscle contraction was quantified based on the velocity of the rotating heads of the animals have been quantified (maximal angular velocity) in the absence and in the presence of neurelaxin-A (2 μM), monitored for 4 hours.
# [2] = system: EGFP-α-tubulin H2B-mCherry HeLa Kyoto cells; assay: HeLa cell toxicity, 12-hour confocal time-lapse imaging; type: cell-based, human; conditions: 50 μM, 12 hours imaging
# Procedure: For phototoxicity experiments, confocal time-lapse imaging of HeLa Kyoto H2B-mCherry eGFP-α-tubulin cells for 12 hours was performed in DMEM further supplemented with 25 mM HEPES in order to achieve CO2 independent media. Confocal time-lapse imaging was performed on a Zeiss LSM 710 using a Plan Apo 20×/0.8 objective, with the following parameters: 2% laser intensity at λexc=488 nm, 3% laser intensity at λexc=543 nm, 1.2× zoom, average 4, line step 1, 1000×1000 pixels, 0.35 μm pixel size, 0.65 μs dwell time, 3 slice/z-stack with 7 μm between slices at every 10 minutes.
# To test the cytotoxicity of neurelaxin-A in live-cell fluorescence microscopy, time-lapse EGFP-α-tubulin H2B-mCherry labeled HeLa Kyoto cells were imaged in a confocal microscope (FIG. 4a).
# Cells were treated with 50 μM neurelaxin-A and imaged for 12 hours applying 3 z-sections every 10 minutes.
# zebrafish embryos = assay: Zebrafish embryo toxicity test; type: in vivo, zebrafish (Danio rerio)
# Procedure: Transgenic Tg(−8.0cldnb:lynEGFP)^zf106 (cldnb:gfp) (Haas, P. & Gilmour, D., Developmental Cell 10, 2006, pp 673-680) zebrafish (Danio rerio) were maintained in the animal facility of Eötvös Loránd University. For the experiments investigating the skeletal and heart muscle of zebrafish, 6 dpf embryos were used. For cytotoxicity assays, 2 dpf embryos were dechorionated and placed in E3 medium (5 mM NaCl, 0.33 mM MgCl2, 0.33 mM CaCl2 and 0.17 mM KCl) complemented with the inhibitor in the indicated concentrations.578 PCT
# In order to test the cytoxicity of neurelaxin-A in a live animal model, zebrafish embryos were treated with the inhibitor at different concentrations and their development was followed for 72 hours (FIG. 4d).
# [3] = Water solubility and solution stability in assay buffer; type: physicochemical; conditions: for solution stability at saturation concentration: 0.1 or 1 vol/vol % DMSO in assay buffer; for solubility: pH 7.3, aqueous buffer, kinetic from dmso stock, read-out: saturation concentration (solubility)
# Procedure: The solubility and the solution stability of neurelaxin-A, were measured in 0.1 and 1 vol/vol % DMSO at room temperature.
# 500 μM inhibitor solutions were prepared in assay buffer (40 mM NaCl, 4 mM MgCl2, 20 mM HEPES pH 7.3) containing 0.1 or 1 vol/vol % DMSO.
# After 0, 5, 25, 60 and 240 minutes, the samples were centrifuged for 1 minute. Absorption spectra of the supernatants were recorded and the concentrations of the dissolved inhibitors were determined using the extinction coefficient ε^o427=6860 M^−1cm^−1 (FIG. 2A).
smiles,measurement,setting,value
"Cc1ccc2c(c1)C(=O)C1(O)CCN(c3ccc(N)cc3)C1=N2 (stereo not drawn) [Neurelaxin-A, 1-(4-aminophenyl)-3a-hydroxy-6-methyl-3,3a-dihydro-1H-pyrrolo[2,3-b]quinolin-4(2H)-one]",time of half inhibition of maximal angular velocity,[1]; 2 μM,3.2 h
same,EC50,"[1]; Danio rerio, C-start, monitored for 4 hours, read-out: EC50 for the inhibition of the maximal angular velocity",< 2000 nM
same,signs of toxicity in HeLa Kyoto cells,[2],did not show any signs of toxicity
same,visible damage in zebrafish embryos,zebrafish embryos; 72 hours,does not cause any visible damage
same,signs of cytotoxicity in zebrafish embryos,"zebrafish embryos; after 40 hours, even at high concentrations",did not show any signs of cytotoxicity
same,solution stability at saturation concentration,[3],remained constant for 4 hours
same,solution stability at saturation concentration,[3]; listed as neurelaxin-A,stable for several days
same,solubility,"[3]; assay buffer with 0.1 vol/vol % DMSO, 0.1 vol/vol % DMSO in assay buffer pH 7.3, room temperature",~298 µM
same,solubility,"[3]; assay buffer with 1 vol/vol % DMSO, 1 vol/vol % DMSO in assay buffer pH 7.3, room temperature",~426 µM
